This is an account of results in patent publication US4395416A, “1-Spiro isobenzofuranic and 1-spiro isobenzothiophenic derivatives the process for preparing the same and their use in therapeutics” (Delalande S.A., priority 1981, dated 1983).

For data set [1], the system named is mice. In words: Protection against death induced by intravenous bicuculline (anti-convulsion activity). Format: in vivo. The following applies: Mus musculus, ip, intravenous injection of 0.7 mg/kg of bicuculline, read-out: Efficient doses 50 - ED 50 protecting against death induced by Bicuculline.
Data set [2] in a line: Acute toxicity (mice - LD 50). The following applies: mouse, in vivo, ip; for mortality: at 400 mg/kg, read-out: Acute toxicity, % at 400 (mg/kg/i.p.), printed in the LD 50 column.
Data set [3] relates to mice. In words: Phenylbenzoquinone test (analgesic activity). Format: in vivo. Conditions: Mus musculus, ip, read-out: Phenylbenzoquinone test - ED 50. An excerpt: The analgesic activity was shown up on mice by interperitoneal injection of the compounds of formula (I) and their salts using the phenylbenzoquinone test according to the method described by E. SIEGMUND in Proced. Soc. Exp. Biol. and Med. 95, 729 (1957).

A word on the LD50: it is the dose at which mortality reaches 50%. With `O=C1SC2(CCCN2c2ccc(Cl)cc2)c2ccccc21` (stereo not shown) [compound 39], the ED50 in the data set on mice [1] is 62 mg/kg. The LD50 in data set [2] was over 400 mg/kg.
`CN1CCCCC12SC(=O)c1ccccc12` (stereo not shown) [compound 2]: the ED50 amounted to 100 mg/kg in the data set with mice [1] and 50 mg/kg in the data set with mice [3]. Further, the LD50 in data set [2] is over 400 mg/kg.
Consider `CN1CCCC12OCc1cc(Cl)ccc12` (stereo not shown) [compound 43], for which the ED50 in the data set with mice [1] amounted to 27.5 mg/kg; in the data set on mice [3], 30 mg/kg. The LD50 in data set [2] was over 400 mg/kg.
Taken in the same sequence, the figures for `CN1CCCC12OCc1ccccc12` (stereo not shown) [compound 21] were 15 mg/kg, 100 mg/kg and 275 mg/kg.
The matching figures for `CN1CCCC12OC(c1ccccc1)c1ccccc12` (stereo not shown) [compound 44]: 45 mg/kg, 64 mg/kg and over 400 mg/kg.
As for `CN1CCCC12SC(=O)c1ccc(Cl)cc12` (stereo not shown) [compound 5], the ED50 with mice [1] was 80 mg/kg. In data set [2], this molecule registered an LD50 of over 400 mg/kg.
On to `CC(C)CN1CCCC12SC(=O)c1cc(Cl)ccc12` (stereo not shown) [compound 36], for which the ED50 in the data set with mice [1] came out at 30 mg/kg. Also, in data set [2], the LD50 is over 400 mg/kg.
The matching figures for `COc1ccc2c(c1)C1(CCCN1C)SC2=O` (stereo not shown) [compound 8]: 100 mg/kg and over 400 mg/kg.
The matching figures for `CN1CCCC12SC(=O)c1cc3ccccc3cc12` (stereo not shown) [compound 42]: 34 mg/kg and over 400 mg/kg.
Taken in the same sequence, the figures for `CN1CCCC12SCc1cc(Cl)ccc12` (stereo not shown) [compound 45] were 15 mg/kg and over 400 mg/kg.
In the case of `CCN1CCCC12SC(=O)c1cc(Cl)ccc12` (stereo not shown) [compound 7], the ED50 in the data set with mice [1] was 10 mg/kg. Moreover, the LD50 in data set [2] is over 400 mg/kg.
Taken in the same sequence, the figures for `CN1CCCC12SC(=O)c1cc(Br)ccc12` (stereo not shown) [compound 41] were 29.5 mg/kg and over 400 mg/kg.
Take `CN1CCCC12SC(=O)c1ccccc12` (stereo not shown) [Code number 1]: the ED50 stood at 7 mg/kg in the data set on mice [1] and 30 mg/kg in the data set on mice [3]. Besides, in data set [2], the LD50 came out at 400 mg/kg.
For `O=C1SC2(CCCN2c2ccccc2)c2ccc(Cl)cc21` (stereo not shown) [compound 38], the ED50 in the data set with mice [1] stood at 56 mg/kg. For the same molecule, the LD50 in data set [2] is over 400 mg/kg.
As to `CCCN1CCCC12SC(=O)c1cc(Cl)ccc12` (stereo not shown) [compound 34], the ED50 with mice [1] is 11 mg/kg. Further, the mortality in data set [2] stood at 40%.
`CCN1CCCC12SC(=O)c1ccccc12` (stereo not shown) [compound 3]: the ED50 with mice [1] is 26 mg/kg. This molecule also registered an LD50 in data set [2] of over 400 mg/kg.
The matching figures for `O=C1SC2(CCCN2c2ccc(Cl)cc2)c2ccc(Cl)cc21` (stereo not shown) [compound 40]: 100 mg/kg and over 400 mg/kg.
The matching figures for `CN1CCCC12SC(=O)c1cc(F)ccc12` (stereo not shown) [compound 16]: 25 mg/kg and over 400 mg/kg.
For the molecule `CCCCN1CCCC12SC(=O)c1cc(Cl)ccc12` (stereo not shown) [compound 35], the ED50 with mice [1] is 26 mg/kg. Also, in data set [2], the mortality was 60%.
Turning to `O=C1SC2(CCCN2c2ccccc2)c2ccccc21` (stereo not shown) [compound 37], the ED50 in the data set with mice [1] came out at 100 mg/kg. In addition, in data set [2], the LD50 is over 400 mg/kg.
Consider `CCCN1CCCC12SC(=O)c1ccccc12` (stereo not shown) [Code number 4], for which the ED50 in the data set on mice [1] is 47 mg/kg; in the data set with mice [3], 35 mg/kg. Besides, the LD50 in data set [2] was over 400 mg/kg.
`COc1ccc2c(c1)C(=O)SC21CCCN1C` (stereo not shown) [compound 9]: the ED50 in the data set on mice [1] came out at 40 mg/kg. Further, the LD50 in data set [2] was over 400 mg/kg.
For `O=C1OC2(CCCC2)c2ccccc21` [compound 23], the ED50 in the data set on mice [1] worked out at 76 mg/kg. Also, the LD50 in data set [2] is over 400 mg/kg.
With `S=C1OC2(CCCC2)c2ccccc21` [compound 24], the ED50 in the data set on mice [1] was 63 mg/kg; in the data set on mice [3] it was 46 mg/kg. Further, the LD50 in data set [2] is over 400 mg/kg.
Take `CN1CCCC12SC(=O)c1cc(Cl)ccc12` (stereo not shown) [compound 6]: the ED50 with mice [1] amounted to 8 mg/kg. The molecule further returned an LD50 in data set [2] of over 400 mg/kg.
The matching figures for `CN1CCCC12SCc1ccccc12` (stereo not shown) [compound 22]: 34 mg/kg and 290 mg/kg.
Taken in the same sequence, the figures for `COc1cc2c(cc1OC)C1(CCCN1C)SC2=O` (stereo not shown) [compound 10] were 30 mg/kg and over 400 mg/kg.
